Measured values: US20150362481A1, “METHOD FOR THE IDENTIFICATION OF BITTER TASTING COMPOUNDS AND BITTER TASTE MODULATING COMPOUNDS” (Universitat Wien, priority 2013, published 2015)
Where “and” joins values, the source holds several entries; their conditions need not be identical. Equal values may be shown once.

Assays:
[1] = tested on: TAS2R10 "knockdown" HGT-1 cells; test: Effect of caffeine on proton secretion in TAS2R10 siRNA knockdown HGT-1 cells; format: cell-based, human; details: 3 mM, 10 min
Procedure: The HiPerFect transfection reagent (Qiagen) was used to transfect small interfering RNA (siRNA), targeting specifically human TAS2R10 (5′-[…]-3′; Sigma-Aldrich) into HGT-1 cells for the specific reduction of TAS2R10 expression. Cells were grown to 50% confluence in serum containing DMEM-media and incubation for 48 h was started by addition of serum-free media containing siRNA targeted against TAS2R10 (final siRNA concentration 1 nM) and HiPerFect transfection reagent (1 μL/6 pmol siRNA). Unrelated non-silencing siRNA (Qiagen) was used as negative control and siRNA targeted against Mn/Hs_MAPK1 which is known to efficiently knocks down human MAPK1 (Qiagen) was used as positive control. A mock transfection, in which only the HiPerFect transfection reagent was tested, was also carried out to exclude the effects of the transfection reagent itself. The knockdown efficiency was controlled by measuring mRNA expression of TAS2R10 using RT-qPCR as explained in example 1.
Statistics: two-way ANOVA with Student-Newman-Keuls post-hoc test, data shown as mean±SEM, n=3, tr=6.

HGT-1 cells [2] = test: Proton secretion in HGT-1 cells after stimulation with bitter substances (intracellular pH, SNARF-1-AM); format: cell-based, human; details: 10 min stimulation, vs untreated cells
Procedure: The human gastric tumor cell line HGT-1 was used for all cell culture experiments. This cell line has been obtained from Dr. C. Laboisse (Laboratory of Pathological Anatomy, Nantes, France). The cells were cultured under standard conditions at 37° C., 95% humidity, and 5% CO2 in DMEM with 4 g/L glucose, 10% fetal bovine serum, 2% L-glutamine, and 1% penicillin/streptomycin. For the reverse transcription and the intracellular proton concentration assay, the cells were harvested using trypsin/EDTA. Cell viability has been determined using trypan blue staining for which the cells were seeded in a defined cell number in 35 mm dishes respectively in black 96-well plates. […] In a 96-well plate, a total of 100 000 HGT-1 cells were spread and allowed to settle for 24 h at 37° C., 95% humidity, and 5% CO2. Cells were washed once with Krebs-Ringer-HEPES buffer (KRHB), and incubated with the fluorescence dye SNARF-1-AM at a concentration of 3 μM for 30 min. […] As positive control, the cells were treated with 1 mM histamine. Fluorescence was analyzed at an excitation of 488 nm, whereas emission wavelengths were recorded at 580 nm and 640 nm on an Infinite 200 Pro plate reader. The ratio of the fluorescence intensities from those two emission wavelengths allows an accurate determination of pH when plotted on a calibration curve. […] The potassium buffer calibration solutions for the intracellular pH measurement consisted of 20 mM NaCl, 110 mM KCl, 1 mM CaCl2, 1 mM MgSO4, 18 mM D-glucose, and 20 mM HEPES. The pH calibration was fit to a linear regression. Intracellular proton concentration was calculated from the pH. The reduced amount of protons in the cell was calculated by log 2 transformation of the ratio between treated and untreated cells (control). The presented data is given as percent variation in comparison to untreated cells. […] Statistic: one-way Anova with post-hoc Test after Dunn's. Significant differences (p<0.05) are indicated by letters. […] Statistic: one-way Anova with post-hoc Test after Dunn's. Significant differences (p<0.05) are indicated by letters.

[3] = tested on: sensorically-trained expert panel; test: Sensoric assessment: bitter-reduction of a bitter tasting solution; format: in vivo, human; set-up: key to Bitterness Bitter compound + Test substance: 1 = not bitter, 10 = extremely bitter; details: for Bitterness Bitter compound alone: scale 1 [not bitter] to 10 [extremely bitter]; for Bitterness Bitter compound + Test substance: scale 1 to 10
Procedure: For categorization of the bitter impression, a scale from 1 [not bitter] to 10 [extremely bitter] was used. For calculation of the percent reduction of bitter taste, the mean values of the rating of the expert panel for the solution of the bitter substance alone and the solution of the bitter substance in combination with the tested potential masking substance were compared. Significances were calculated using a paired, two sided student t-test and indicated by the p-values in Table 4.

HGT-1 cells [4] = test: Reduction of bitter substance induced proton secretion in HGT-1 cells by bitter-masking compounds; format: cell-based, human; details: 10 min
Procedure: The human gastric tumor cell line HGT-1 was used for all cell culture experiments. This cell line has been obtained from Dr. C. Laboisse (Laboratory of Pathological Anatomy, Nantes, France). The cells were cultured under standard conditions at 37° C., 95% humidity, and 5% CO2 in DMEM with 4 g/L glucose, 10% fetal bovine serum, 2% L-glutamine, and 1% penicillin/streptomycin. For the reverse transcription and the intracellular proton concentration assay, the cells were harvested using trypsin/EDTA. Cell viability has been determined using trypan blue staining for which the cells were seeded in a defined cell number in 35 mm dishes respectively in black 96-well plates. […] In a 96-well plate, a total of 100,000 HGT-1 cells were spread and allowed to settle for 24 h at 37° C., 95% humidity, and 5% CO2. Cells were washed once with KRHB and incubated with the fluorescence dye SNARF-1-AM at a concentration of 3 μM for 30 min. […] As positive control, the cells were treated with 1 mM histamine. Fluorescence was analyzed at an excitation of 488 nm and emission wavelengths were recorded at 580 nm and 640 nm on an Infinite 200 Pro plate reader. The ratio of the fluorescence intensities from those two emission wavelengths allows an accurate determination of pH when plotted on a calibration curve. […] The potassium buffer calibration solutions for the intracellular pH measurement consisted of 20 mM NaCl, 110 mM KCl, 1 mM CaCl2, 1 mM MgSO4, 18 mM D-glucose, and 20 mM HEPES. The pH calibration was fit to a linear regression curve. Intracellular proton concentration was calculated from the pH. The reduced amount of protons in the cell was calculated by log 2 transformation of the ratio between treated and untreated cells (control). The presented data is given as percent variation in comparison to untreated cells.

[5] = caffeine 500 ppm + test compound 100 ppm
[6] = theobromine 300 ppm + test compound 100 ppm
[7] = 0.3 mM theobromine + 0.03 mM test compound
[8] = 0.3 mM theobromine + 0.3 mM test compound
[9] = 3 mM caffeine + 0.03 mM test compound
[10] = 3 mM caffeine + 0.3 mM test compound
[11] = caffeine 500 ppm + test compound 25 ppm
[12] = theobromine 300 ppm + test compound 25 ppm

## Cn1c(=O)c2c(ncn2C)n(C)c1=O [Caffeine, caffeine]
[1]; mock transfected cells
  Percent effect on proton secretion T/C [%]: 52.80%
[1]; not transfected cells
  Percent effect on proton secretion T/C [%]: 48.80%
[1]; siRNA TAS2R10 knockdown cells
  Percent effect on proton secretion T/C [%]: 28.58%
HGT-1 cells [2]; 0.3 μM
  Proton secretion T/C [%]: 25.49%
HGT-1 cells [2]; 3 μM
  Proton secretion T/C [%]: 14.74%
HGT-1 cells [2]; 30 μM
  Proton secretion T/C [%]: 23.43%
HGT-1 cells [2]; 300 μM
  Proton secretion T/C [%]: 17.07%
HGT-1 cells [2]; 3000 μM
  Proton secretion T/C [%]: 40.97%
[3]; 500 ppm
  Bitterness Bitter compound alone: 6.7 ± 1.1 and 4.1 ± 0.9 and 6.3 ± 1.4
HGT-1 cells [4]; 3 mM caffeine alone
  Percent increase in proton secretion T/C [%]: 54.79% and 54.05% and 38.75% and 52.41%

## O=C1C[C@@H](c2ccc(O)c(O)c2)Oc2cc(O)cc(O)c21 [Eriodictyol, eriodictyol]
[3]; [5]
  % Reduction of the Bitter impression: 47%
  Bitterness Bitter compound + Test substance: 3.5 ± 0.7
[3]; [6]
  % Reduction of the Bitter impression: 36%
  Bitterness Bitter compound + Test substance: 2.4 ± 1.2
HGT-1 cells [4]; [7]
  Percent increase in proton secretion T/C [%]: 23.95%
HGT-1 cells [4]; [8]
  Percent increase in proton secretion T/C [%]: −42.86%
HGT-1 cells [4]; [9]
  Percent increase in proton secretion T/C [%]: 29.69%
HGT-1 cells [4]; [10]
  Percent increase in proton secretion T/C [%]: −33.96%

## NCCc1c[nH]cn1 [Histamine, histamine]
HGT-1 cells [2]; 1 mM
  Proton secretion T/C [%]: 36.66% and 45.70%

## COc1cc([C@@H]2CC(=O)c3c(O)cc(O)cc3O2)ccc1O [Homoeriodictyol, homoeriodictyol]
[3]; [5]
  % Reduction of the Bitter impression: 28%
  Bitterness Bitter compound + Test substance: 4.5 ± 1.4
[3]; [6]
  % Reduction of the Bitter impression: 12.5%
  Bitterness Bitter compound + Test substance: 3.7 ± 1.3
HGT-1 cells [4]; 0.3 mM theobromine + 0.003 mM test compound
  Percent increase in proton secretion T/C [%]: 21.56%
HGT-1 cells [4]; [7]
  Percent increase in proton secretion T/C [%]: 13.79%
HGT-1 cells [4]; [8]
  Percent increase in proton secretion T/C [%]: −16.92%
HGT-1 cells [4]; [9]
  Percent increase in proton secretion T/C [%]: 37.99%
HGT-1 cells [4]; [10]
  Percent increase in proton secretion T/C [%]: 20.18%

## COc1cc(C[C@H]2CO[C@H](c3ccc(O)c(OC)c3)[C@H]2CO)ccc1O [Lariciresinol, lariciresinol]
[3]; [11]
  % Reduction of the Bitter impression: 38.6%
  Bitterness Bitter compound + Test substance: 2.9 ± 1.41
[3]; [12]
  % Reduction of the Bitter impression: 10.7%
  Bitterness Bitter compound + Test substance: 3.7 ± 2.24
HGT-1 cells [4]; [7]
  Percent increase in proton secretion T/C [%]: 31.73%
HGT-1 cells [4]; [8]
  Percent increase in proton secretion T/C [%]: 17.55%
HGT-1 cells [4]; [9]
  Percent increase in proton secretion T/C [%]: 46.40%
HGT-1 cells [4]; [10]
  Percent increase in proton secretion T/C [%]: 21.57%

## COc1cc(C[C@H]2COC(=O)[C@@H]2Cc2ccc(O)c(OC)c2)ccc1O [Matairesinol, matairesinol]
[3]; [11]
  % Reduction of the Bitter impression: 35.5%
  Bitterness Bitter compound + Test substance: 2.7 ± 1.77
[3]; [12]
  % Reduction of the Bitter impression: 24.7%
  Bitterness Bitter compound + Test substance: 3.4 ± 1.49
HGT-1 cells [4]; [7]
  Percent increase in proton secretion T/C [%]: 23.41%
HGT-1 cells [4]; [8]
  Percent increase in proton secretion T/C [%]: −18.25%
HGT-1 cells [4]; [9]
  Percent increase in proton secretion T/C [%]: 14.39%
HGT-1 cells [4]; [10]
  Percent increase in proton secretion T/C [%]: −20.43%

## Cn1cnc2c1c(=O)[nH]c(=O)n2C [Theobromine, theobromine]
HGT-1 cells [2]; 0.03 μM
  Proton secretion T/C [%]: 3.71%
HGT-1 cells [2]; 0.3 μM
  Proton secretion T/C [%]: 17.71%
HGT-1 cells [2]; 3 μM
  Proton secretion T/C [%]: 43.16%
HGT-1 cells [2]; 30 μM
  Proton secretion T/C [%]: 44.88%
HGT-1 cells [2]; 300 μM
  Proton secretion T/C [%]: 57.2%
[3]; 300 ppm
  Bitterness Bitter compound alone: 3.8 ± 1.8 and 4.5 ± 2.01 and 4.2 ± 1.65 and 4.3 ± 1.8
